One data set deals with Pratylenchus penetrans. Briefly: Pratylenchus penetrans test (soil application). The data set is classed as in vivo. The note with it: corn (Zea mays), after 2 weeks. How it is done: Pratylenchus penetrans—Test (Soil Application)
(§1) Solvent: 4 parts by weight acetone
(§2) Emulsifier: 1 part by weight alkylaryl polyglycol ether
(§3) To produce a suitable preparation of active compound, 1 part by weight of active compound is mixed with solvent and emulsifier at the ratio 4:1 and is diluted with water to the desired concentration.
This compound solution is mixed with 500 ml soil infected with Pratylenchus penetrans (800 nematodes per 100 ml). The stated concentration refers to the amount of compound per unit of volume soil (mg/1=ppm). The treated soil is filled into 500 ml pots and 3 corn seeds (Zea mays) are sown.
(§4) After 2 weeks the number of nematodes in the corn roots is determined by means of maceration. The roots are cleaned with water, cut into about 1 cm pieces and minced with water in a mixer for 10-15 seconds. The pieces are poured over a 0.2 mm-nematode sieve, rinsed with 400 ml water and the flow rate is collected. After 6 hours the supernatant is aspirated and the number of nematodes is determined microscopically with a counting chamber.
(§5) The average number of nematodes per pot is determined and efficieny is calculated by using Abbott's formula:
(§6) C=untreated control plants

A further data set concerns Pratylenchus zeae. Briefly: Pratylenchus zeae test (PRATZE soil application). To be noted: application rate 2 ppm in soil; corn (Zea mays); after 2 weeks. It is filed as in vivo. How it is done: Pratylenchus zeae—Test (PRATZE Soil Application)
as §1, §2, §3
This compound solution is mixed with 500 ml soil infected with Pratylenchus zeae (800 nematodes per 100 ml). The stated concentration refers to the amount of compound per unit of volume soil (mg/1=ppm). The treated soil is filled into 500 ml pots and 3 corn seeds (Zea mays) are sown.
as §4, §5, §6

Another data set concerns Radopholus similis. Put plainly: Radopholus similis test (soil application). The data set is classed as in vivo. The note with it: application rate 2 ppm in soil; banana seedling; after 2 weeks. How it is done: Radopholus similis—Test (Soil Application)
as §1, §2, §3
This compound solution is mixed with soil. The stated concentration refers to the amount of compound per unit of volume soil (mg/1=ppm). The treated soil is filled into 250 ml pots and a banana seedling is planted. Afterwards 2.5 ml of a nematode suspension (500 Radopholus similis/ml) are applied.
After 2 weeks the number of nematodes in the banana roots is determined by means of maceration. The roots are cut off, cleaned with water and after adding 25-40 ml 0.01% lactic acid—acid fuchsin solution they are boiled in a microwave. On the next day the roots are rinsed over a 0.025 mm-nematode sieve, roughly minced and macerated with 15-20 ml water in an Ultra Turrax. After filling up with water to 45 ml, the number of nematodes in the supernatant is determined microscopically with a counting chamber.
as §5, §6

In the next data set the test system is Globodera rostochiensis. Put plainly: Globodera rostochiensis test (soil application). The data set is classed as in vivo. To be noted: application rate 2 ppm in soil; potato seedling; after six weeks. How it is done: Globodera rostochiensis—Test (Soil Application)
as §1, §2
To produce a suitable preparation of active compound, 1 part by weight of active compound is mixed with solvent and emulsifier at the ratio 4:1 and is diluted with water to the desired concentration. This compound composition is mixed with soil. The stated concentration refers to the amount of compound per unit of volume soil (mg/1=ppm).
450 ml of this compound composition is mixed with 50 ml of soil infected with Globodera rostochiensis (20.000 nematodes/100 ml), filled in 500 ml pots and a potato seedling is planted.
After six weeks the average number of cysts in the potato roots per pot are determined and efficieny is calculated by using Abbott's formula:
as §6

Another data set deals with Meloidogyne incognita. Briefly: Meloidogyne incognita in tomato test (MELGIN soil application). The note with it: application rate 2 ppm in soil; tomato seedling (Solanum lycopersicum); after five weeks. The data set is classed as in vivo. How it is done: Meloidogyne incognita in Tomato—Test (MELGIN Soil Application)
as §1, §2
To produce a suitable preparation of active compound, 1 part by weight of active compound is mixed with solvent and emulsifier at the ratio 4:1 and is diluted with water to the desired concentration. The stated concentration refers to the amount of compound per unit of volume soil (mg/1=ppm).
This compound composition is mixed with 500 ml of soil and 4 ml of a nematode suspension (1000 differenciated eggs and larvae of Meloidogyne incognita/ml). The stated concentration refers to the amount of compound per unit of volume soil (mg/1=ppm). The treated soil is filled in 500 ml pots and a tomato seedling (Solanum lycopersicum) is planted.
After five weeks the average number of galls in the tomato roots per pot are determined and efficieny is calculated by using Abbott's formula:
as §6

Another data set can be described thus: physchem. The data set is classed as physicochemical. The note with it: reversed-phase C18, acidic range pH 3.4 (formic acid), 55° C.; for chromatographic logP: read-out: log P. How it is done:
1) Description of Method for Determination of the log P Values (Formic Acid Method)
Eluents for determination in the acidic range (pH 3.4):
Eluent A: acetonitrile+1 ml of formic acid/liter. Eluent B: water+0.9 ml of formic acid/liter.
The lambda max values were determined in the maxima of the chromatographic signals using the UV spectra from 200 nm to 400 nm.

Results on nine compounds are retold here after patent publication US10258038B2, “Use of heterocyclic compounds for controlling nematodes” (BAYER CROPSCIENCE AKTIENGESELLSCHAFT, priority 2014, dated 2019).

Like-named read-outs stand apart in the source and are kept apart here.

For `O=C(Nc1ccn(-c2c(F)cccc2F)n1)c1ccccc1C(F)(F)F` [Compound I-1-75, N-[1-(2,6-difluorophenyl)-1H-pyrazol-3-yl]-2-(trifluoromethyl)benzamide], the figures for the “activity (efficiency by Abbott's formula, number of nematodes in corn roots)” value with Pratylenchus penetrans (application rate 2 ppm in soil) and in the data set on Pratylenchus zeae were 88% and 89%, respectively. The “activity (efficiency by Abbott's formula, number of nematodes in banana roots)” value in the data set on Radopholus similis turned out to be 90%. Also, in the data set with Globodera rostochiensis, the “activity (efficiency by Abbott's formula, number of cysts in potato roots)” value came out at 100%. For the same compound, in the data set with Meloidogyne incognita, the “activity (efficiency by Abbott's formula, number of galls in tomato roots)” value was 100%. The chromatographic logP in the data set “physchem” (HPLC) was determined as 2.68.
In the case of `CCN(C(=O)c1ccccc1C(F)(F)F)c1ccn(-c2ncc(F)cc2F)n1` [Compound I-1-468, N-[1-(3,5-difluoropyridin-2-yl)-1H-pyrazol-3-yl]-N-ethyl-2-(trifluoromethyl)benzamide], the “activity (efficiency by Abbott's formula, number of cysts in potato roots)” value in the data set with Globodera rostochiensis came to 100%. The chromatographic logP in the data set “physchem” (reversed-phase C18 HPLC column) is 3.23.
For `N#Cc1nccnc1-n1ccc(NC(=O)c2ccccc2C(F)(F)F)n1` [Compound I-1-574, N-[1-(3-Cyanopyrazin-2-yl)-1H-pyrazol-3-yl]-2-(trifluoromethyl)benzamide], the “activity (efficiency by Abbott's formula, number of nematodes in corn roots)” value in the data set with Pratylenchus penetrans (application rate 4 ppm in soil) is recorded as 97%. In addition, in the data set with Globodera rostochiensis, the “activity (efficiency by Abbott's formula, number of cysts in potato roots)” value was found to be 80%.
Broadly, the log P is the decadic logarithm of the partition coefficient of the neutral form, usually between octanol and water. Lower therefore signals a more hydrophilic compound. `O=C(Nc1cnn(-c2c(F)cccc2F)n1)c1ccccc1C(F)(F)F` [Compound I-2-35, N-[2-(2,6-Difluorophenyl)-2H-1,2,3-triazol-4-yl]-2-(trifluoromethyl)benzamide]: in the data set on Pratylenchus penetrans (application rate 2 ppm in soil), the “activity (efficiency by Abbott's formula, number of nematodes in corn roots)” value was determined as 90%. Also, the “activity (efficiency by Abbott's formula, number of cysts in potato roots)” value with Globodera rostochiensis came out at 100%. Moreover, the “activity (efficiency by Abbott's formula, number of galls in tomato roots)” value with Meloidogyne incognita worked out at 100%. The “log P” value in “physchem” (HPLC) was found to be 2.80.
Consider `CC(=O)NC1=NN(c2c(F)cccc2F)CC1` [Ia-2, N-[1-(2,6-Difluorophenyl)-4,5-dihydro-1H-pyrazol-3-yl]acetamide], for which the “log P” value in “physchem” (HPLC) is 1.46.
Same read-out and setting: the figure for `CC(=O)Nc1ccn(-c2c(F)cccc2F)n1` [Ia-3, N-[1-(2,6-Difluorophenyl)-1H-pyrazol-3-yl]acetamide] is 1.33.
On the same count and under the same terms, the figure for `Nc1ccn(-c2c(F)cccc2F)n1` [Ia-4, 1-(2,6-Difluorophenyl)-1H-pyrazole-3-amine] is 1.13.
Still for that read-out and setting: with `Nc1ccn(-c2ncc(F)cc2F)n1` [Ib-1, 1-(3,5-Difluoropyridin-2-yl)-1H-pyrazole-3-amine] the figure was 0.81.
As to `Nc1cnn(-c2c(F)cccc2F)n1` [Ic-8, 2-(2,6-Difluorophenyl)-2H-1,2,3-triazole-4-amine], the “log P” value in the data set “physchem” (HPLC) is recorded as 1.16.
